Reference: patent US8129527B2, “Analogs of dehydrophenylahistins and their therapeutic use” (Nereus Pharmacuticals, Inc., priority 2006, dated 2012)

How the values were obtained:
[1] = tested on: MES-SA human uterine sarcoma; experiment: Cell growth inhibition assay, resazurin (Example 11); assay type: cell-based; conditions: mean ± standard deviation of three independent experiments
[2] = tested on: HL-60/MX2 multidrug resistant; experiment: as above; assay type: cell-based, human; conditions: for EC50: Homo sapiens, HL60/MX2, HL-60/MX2, mean values of two independent experiments; for cytotoxic activity against both HL-60 and HL-60/MX2: in words; for Fold change: ratio of EC50 values (HL-60/MX2:HL-60)
PC-3 prostate carcinoma = experiment: as above; assay type: cell-based; conditions: Homo sapiens, 48 hours, mean ± SD where n ≧ 3, ** n = 1
Procedure: (§1) The growth inhibitory activity of NPI-2421, NPI-2463, NPI-2503 and NPI-2504 were determined against selected human (colorectal adenocarcinoma, HT-29; breast adenocarcinoma, MDA-MB-231; non-small cell lung carcinoma, NCI-H292 and prostate carcinomas, PC-3 and DU 145) and mouse (melanoma, B16-F10) tumor cell lines.
(§2) HT-29 (HTB-38), MDA-MB-231 (HTB-26), NCI-H292 (CRL-1848), B16-F10 (CRL-6475), PC-3 (CRL-1435) and DU 145 (HTB-81) cells were all purchased from the ATCC. The cell lines were maintained in their respective ATCC recommended culture media and cultured in an incubator at 37° C. in 5% CO2 and 95% humidified air.
(§3) 20 mM stock solutions of compounds were prepared in 100% DMSO and stored at −80° C. 10× concentrated serial dilutions of the compounds were prepared in B16-F10 cell culture medium for final concentrations ranging from 20 μM to […]. Ten μl volumes of the 10× serial dilutions were added to the test wells in triplicate and the plates returned to the incubator for 48 hours. The final concentration of DMSO was 0.25% in all samples.
(§4) Following 48 hours of drug exposure, 10 μl of 0.2 mg/ml resazurin (obtained from Sigma-Aldrich Chemical Co.) in Mg^2+, Ca^2+ free phosphate buffered saline was added to each well and the plates were returned to the incubator for 3-6 hours. […] Resazurin dye in medium without cells was used to determine the background, which was subtracted from the data for all experimental wells.

[3] = tested on: DU 145 prostate carcinoma; experiment: as above; assay type: cell-based; conditions: Homo sapiens, 48 hours
Procedure: as §1, §2, §3, §4

[4] = tested on: MDA-MB-231 breast adenocarcinoma; experiment: as above; assay type: cell-based; conditions: Homo sapiens, 48 hours, mean ± SD where n ≧ 3
Procedure: as §1, §2, §3, §4

[5] = tested on: NCI-H292 non-small cell lung carcinoma; experiment: as above; assay type: cell-based; conditions: Homo sapiens, 48 hours, mean ± SD where n ≧ 3, ** n = 1
Procedure: as §1, §2, §3, §4

[6] = tested on: HT-29 colorectal adenocarcinoma; experiment: as above; assay type: cell-based; conditions: Homo sapiens, 48 hours, mean ± SD where n ≧ 3
Procedure: as §1, §2, §3, §4

B16-F10 melanoma = experiment: as above; assay type: cell-based; conditions: Mus musculus, 48 hours, mean ± SD where n ≧ 3
Procedure: as §1, §2, §3, §4

[7] = tested on: MES-SA/Dx5 multidrug resistant; experiment: as above; assay type: cell-based, human; conditions: for EC50: Homo sapiens, MES-SA/Dx5, mean ± standard deviation of three independent experiments; for cytotoxic activity against both MES-SA and MES-SA/Dx5: in words; for Fold change: ratio of EC50 values (MES-SA/Dx5:MES-SA)
HT-29 cells = experiment: Additional cytotoxicity assays, resazurin (Table 3.1); assay type: cell-based, human; conditions: Table 3.1
Procedure, shortened: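 Cells exposed 48 hours to compounds at final concentrations 2.0×10^−5 M to 2.0×10^−10 M, in triplicate. Viability then read as resazurin fluorescence after 3-4 hours with dye; cell-free dye background subtracted.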

HuVECs = experiment: Cell growth inhibition assay, resazurin (Example 11); assay type: cell-based, human; conditions: for EC50: Homo sapiens, HuVEC, 48 hours, mean values of two independent experiments; for cytotoxicity against HuVECs: in words
Procedure: The growth inhibitory activity of NPI-2421 and NPI-2463 were determined against human umbilical […] endothelial cells, HuVECs.
HuVECs (Cambrex Biosciences; CC2519A) were maintained in EGM-2 medium at 37° C. in 5% CO2 and 95% humidified air.
For cell growth inhibition assays, HuVECs were seeded at 1×10^3 cells/well in 90 μl complete media into a Corning 3904 black-walled, clear-bottom tissue culture plates and the plates were incubated overnight to allow cells to establish and enter log phase growth. 20 mM stock solutions of compounds were prepared in 100% DMSO and stored at −80° C. […] Ten μl volumes of the 10× serial dilutions were added to the test wells in triplicate and the plates returned to the incubator for 48 hours. The final concentration of DMSO was 0.25% in all samples.
as §4

[8] = tested on: HL-60 human acute promyelocytic leukemia cells; experiment: as above; assay type: cell-based; conditions: mean values of two independent experiments
Procedure: Human uterine sarcoma (MES-SA; CRL-1976), its multidrug resistant derivative (MES-SA/Dx5; CRL-1977), human acute promyelocytic leukemia cells (HL-60; CCL-240) and its multidrug resistant derivative (HL-60/MX2; CRL-2257) were purchased from ATCC and maintained in appropriate culture media. The cells were cultured in an incubator at 37° C. in 5% CO2 and 95% humidified air.
For cell growth inhibition assays, MES-SA and MES-SA/Dx5 cells were both seeded at 3×10^3 cells/well in 90 μl complete media into 96 well (Corning; 3904) black-walled, clear-bottom tissue culture plates and the plates were incubated overnight to allow cells to establish and enter log phase growth. HL-60 and HL-60/MX2 cells were both seeded at 5×10^4 cells/well in 90 μl complete media into 96 well plates on the day of compound addition. 20 mM stock solutions of the compounds were prepared in 100% DMSO and stored at −80° C. […] Ten μl volumes of the 10× serial dilutions were added to the test wells in triplicate and the plates returned to the incubator for 48 hours. The final concentration of DMSO was 0.25% in all samples.
as §4
HL-60/MX2 is a multidrug resistant tumor cell line derived from the human promyelocytic leukemia cell line, HL-60 and expresses reduced topoisomerase II activity. The data presented in Table 20 summarize the growth inhibitory effects of NPI-2421, NPI-2463, NPI-2503, NPI-2504 and NPI-2506 against HL-60 and its multidrug resistant derivative HL-60/MX2. Mitoxantrone, the topoisomerase II targeting agent was included as a control.

[9] = tested on: HT-29 human colorectal carcinoma cells; experiment: Cell growth inhibition assay, resazurin (Table 3.2); assay type: cell-based; conditions: Table 3.2, HT-29 cells, read-out: EC50 (M) Mean
Procedure, shortened: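 HT-29 cells seeded at 5×10^3/well overnight, then exposed in triplicate to compounds at final 20 μM to […] (0.25% DMSO) for 48 h at 37° C. Viability read by resazurin reduction after 3-4 h further incubation, with cell-free dye background subtracted.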

Row | EC50 [1] [nM] | EC50 [2] [nM] | EC50 (PC-3 prostate carcinoma) [nM] | EC50 [3] [nM] | EC50 [4] [nM] | EC50 [5] [nM] | EC50 [6] [nM] | EC50 (B16-F10 melanoma) [nM] | EC50 [8] [nM] | EC50 [9] [M] | Compound | cytotoxic activity against both HL-60 and HL-60/MX2 [2] | Fold change [2] | EC50 [7] [nM] | cytotoxic activity against both MES-SA and MES-SA/Dx5 [7] | Fold change [7] | EC50 (HT-29 cells; Homo sapiens, HT-29, read-out: EC50 (M) Mean) [M] | % cytotox Mean (HT-29 cells) [%] | EC50 (HuVECs) [nM] | cytotoxicity against HuVECs (HuVECs)
1 | 12 ± 3 | 14 | > 2000 | 25 | 20 ± 6 | 41 | 21 ± 9 | 19 | 23 | – | CC(C)(C)c1ocnc1/C=c1\[nH]c(=O)/c(=C/c2ccccc2)[nH]c1=O [Compound 2421, tBu-delta-PLH-oxazole] | retained cytotoxic activity | 0.6 | 17 ± 4 | retained equivalent cytotoxic activity | 1.4 | 2.22e-08 | 88 | 12 | cytotoxic against HuVECs
2 | 12 ± 4 | 14 | 13 ± 5 | 32 | 25 ± 9 | 24 ± 11 | 16 ± 3 | 14 ± 5 | 26 | 1.71e-08 | CC(C)(C)c1ocnc1/C=c1\[nH]c(=O)/c(=C/c2cccc(F)c2)[nH]c1=O [Compound 2463, tBu-Oxadelta-PLH-m-F] | retained cytotoxic activity | 0.5 | 14 ± 3 | retained equivalent cytotoxic activity | 1.2 | – | – | 10 | cytotoxic against HuVECs
